≈ marks a conversion by molar mass, not a printed value.
Key:
[1] = Ratio of drug level in brain to plasma in Swiss mouse at 2 mg/kg, iv measured after 5 mins; assay type: ADME, organism-based; conditions: brain and plasma, read-out: BPR
[2] = molecular target: T1, Amyloid-beta precursor protein (Homo sapiens, UniProt P05067); experiment: Inhibition of Abeta42 (unknown origin) aggregation assessed as ThT fluorescence at 330 uM measured after 24 hrs by ThT fluorescence assay relative to DMSO control; set-up: scale not given: the % may be the effect or the level left
T1 sequence (P05067 whole entry): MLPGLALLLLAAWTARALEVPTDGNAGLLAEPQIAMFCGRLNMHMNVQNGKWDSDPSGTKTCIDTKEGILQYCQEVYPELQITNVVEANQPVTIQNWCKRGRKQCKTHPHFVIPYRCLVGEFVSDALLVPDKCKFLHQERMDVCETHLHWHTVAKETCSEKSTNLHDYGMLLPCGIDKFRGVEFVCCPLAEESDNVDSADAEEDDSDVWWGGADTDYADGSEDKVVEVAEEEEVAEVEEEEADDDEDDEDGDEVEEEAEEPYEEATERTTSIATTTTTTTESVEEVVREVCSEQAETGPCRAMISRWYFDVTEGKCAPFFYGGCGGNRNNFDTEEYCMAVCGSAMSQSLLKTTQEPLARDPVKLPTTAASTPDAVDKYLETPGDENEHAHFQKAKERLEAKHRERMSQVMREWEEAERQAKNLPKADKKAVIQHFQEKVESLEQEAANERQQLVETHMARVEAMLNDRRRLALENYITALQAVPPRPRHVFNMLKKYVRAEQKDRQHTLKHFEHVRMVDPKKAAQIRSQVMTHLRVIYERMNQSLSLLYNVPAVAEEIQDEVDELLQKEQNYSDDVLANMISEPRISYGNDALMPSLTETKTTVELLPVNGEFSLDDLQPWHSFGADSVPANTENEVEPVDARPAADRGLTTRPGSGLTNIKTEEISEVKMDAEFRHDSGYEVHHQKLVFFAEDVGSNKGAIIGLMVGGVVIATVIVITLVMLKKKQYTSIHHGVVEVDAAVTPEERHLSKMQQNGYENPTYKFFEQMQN

[3] = molecular target: T1, Amyloid-beta precursor protein; experiment: Inhibition of Abeta42 (unknown origin) aggregation measured after 24 hrs by ThT fluorescence assay
[4] = Aqueous solubility of the compound in PBS at pH 7.4; assay type: physicochemical
[5] = Half life in human liver S9 fraction; assay type: ADME, subcellular
[6] = test system: Liver; experiment: Clearance in human liver S9 fraction; assay type: ADME, subcellular
[7] = Apparent permeability of the compound from apical to basolateral side; assay type: physicochemical; conditions: not told
[8] = test system: P-gp; experiment: Substrate activity at P-gp (unknown origin) assessed as efflux ratio of apparent permeability of the compound; assay type: ADME; conditions: human, not told
[9] = Lipophilicity, logD of the compound; assay type: physicochemical; conditions: octanol/water
[10] = Half life in Swiss mouse plasma at 2 mg/kg, iv; assay type: ADME, organism-based
[11] = AUC in Swiss mouse plasma at 2 mg/kg, iv; assay type: ADME, organism-based
[12] = Volume of distribution in Swiss mouse plasma at 2 mg/kg, iv; assay type: ADME, organism-based
[13] = Cmax in Swiss mouse plasma at 2 mg/kg, iv; assay type: ADME, organism-based; set-up: dose 2 mg/kg, route intravenous
[14] = Half life in Swiss mouse brain at 2 mg/kg, iv; assay type: ADME, organism-based
[15] = AUC in Swiss mouse brain at 2 mg/kg, iv; assay type: ADME, organism-based
[16] = Volume of distribution in Swiss mouse brain at 2 mg/kg, iv; assay type: ADME, organism-based
[17] = Cmax in Swiss mouse brain at 2 mg/kg, iv; assay type: ADME, organism-based; set-up: dose 2 mg/kg, route intravenous

Compound | Activity [2] [%] | IC50 [3] [µM] | other results
CNc1cccc(NCCc2cccc(NCCc3ccccn3)n2)n1 | 12 | 25 | Kp at 5 min [1]: 5.98; solubility [4]: > 200 µM; half-life [5]: 10 min; CLH [6]: 70 µL/min/mg; Papp A→B [7]: 49.2 ×10⁻⁶ cm/s; efflux ratio [8]: 0.78; logD [9]: 2.96; half-life [10]: 37.8 min; AUC [11]: 150 ng·h/mL; Vd [12]: 12 L/kg; Cmax [13]: 308 ng/mL; half-life [14]: 314 min; AUC [15]: 863 ng·h/mL; Vd [16]: 18.9 L/kg; Cmax [17]: 1840 ng/mL
Nc1c(/N=N/c2ccc(-c3ccc(/N=N/c4cc(S(=O)(=O)O)c5ccccc5c4N)cc3)cc2)cc(S(=O)(=O)O)c2ccccc12 [CONGO RED] |  | 1.3 | 
CNc1cccc(CCNc2cccc(CCNc3ccccn3)n2)n1 | 16 | 280 | 
CNc1cccc(CCNc2cccc(NC)n2)n1 | 23 |  | 
CNc1cccc(CCNc2cccc(NCCc3ccccn3)n2)n1 | 12 |  | solubility [4]: > 200 µM
CNc1cccc(CCNc2cccc(CCCNc3ccccn3)n2)n1 | 23 |  | 
CNc1cccc(NCCCc2cccc(NCCCc3ccccn3)n2)n1 | 12 | 17 | 
CNc1cccc(CCNc2cccc(CNc3ccccn3)n2)n1 | 53 |  | 
CNc1cccc(CCCNc2cccc(CCCNc3ccccn3)n2)n1 | 23 |  | 
CNc1cccc(CNc2cccc(CCNc3ccccn3)n2)n1 | > 60 |  | 
CNc1cccc(CCNc2cccc(CCN(c3ccccn3)c3ccccn3)n2)n1 | 16 | 240 | 
CNc1cccc(CNc2cccc(CCN(c3ccccn3)c3ccccn3)n2)n1 | 23 |  | 
CNc1cccc(CNc2cccc(CNc3ccccn3)n2)n1 | > 60 |  | solubility [4]: 18 µM (≈ 5.77 µg/mL)
CNc1cccc(NCCc2cccc(NCc3ccccn3)n2)n1 | 14 |  | 
CNc1cccc(NCCc2ccccn2)n1 | 36 |  | 
